Reference: US8828992B2, “Substituted azole derivatives, pharmaceutical composition containing the derivatives, and method for treating Parkinson's disease using the same” (priority 2009, dated 2014)
Read-outs that look alike come from different tables or passages of the source.

Columns and labels:
[1] = biological target: T1, Monoamineoxidase B type human-derived enzyme (Homo sapiens, UniProt P27338); test: Inhibitory effects on the activity of MAO-B (Amplex Red fluorescence, benzylamine substrate); format: biochemical; conditions: for inhibition at 0.01 µM: read-out: Inhibitory effects (%) on the activity of MAO-B
T1 sequence (P27338 1-520): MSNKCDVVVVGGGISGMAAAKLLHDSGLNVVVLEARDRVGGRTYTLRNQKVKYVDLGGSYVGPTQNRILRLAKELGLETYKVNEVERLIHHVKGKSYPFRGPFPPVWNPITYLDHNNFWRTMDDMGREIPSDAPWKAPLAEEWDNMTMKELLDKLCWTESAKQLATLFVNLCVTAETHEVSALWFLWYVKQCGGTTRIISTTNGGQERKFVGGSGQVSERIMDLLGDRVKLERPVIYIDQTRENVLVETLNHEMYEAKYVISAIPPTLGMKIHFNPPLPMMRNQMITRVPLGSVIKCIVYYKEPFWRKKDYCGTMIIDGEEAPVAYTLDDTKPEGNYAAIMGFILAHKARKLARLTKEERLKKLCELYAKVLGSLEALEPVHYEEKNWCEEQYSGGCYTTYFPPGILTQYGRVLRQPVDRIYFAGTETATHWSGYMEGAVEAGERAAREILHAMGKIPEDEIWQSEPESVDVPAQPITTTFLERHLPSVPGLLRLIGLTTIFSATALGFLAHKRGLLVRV
How it was run: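 Human MAO-B, diluted 1:200 in 0.05 M sodium phosphate pH 7.4, was pre-incubated with compound for 30 min. It was then mixed 1:1 with working buffer holding 400 μM Amplex Red, 2 U/ml HRP and 2 mM benzylamine (working-buffer levels). Fluorescence (Ex 563/Em 587 nm) was read over 30 min.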

[2] = system: dopamine (DA) in the striatum of a MPTP-treated mouse; test: Combined administration with Levodopa group: dopamine in the striatum of MPTP-treated mouse (HPLC); format: in vivo; conditions: compound 1 mg/kg PO co-administered with Levodopa group (Levodopa 50 mg/kg + Benzerazide 25 mg/kg IP); for Concentration of dopamine compared to a control group %, 1 hr: 1 hr after Levodopa; for Concentration of dopamine compared to a control group %, 3 hr: 3 hr after Levodopa
Description: MPTP (20 mg/kg, free base; Sigma, St. louis, Mo.) was administered to an 8 week old (20-25 g) male C57BL/6 test mouse intraperitoneally at the interval of 2 hours to construct a model.
In order to observe the effects of combined administration of a compound of the present invention and Levodopa, the compound of the present invention was dissolved in a solution containing 0.02 ml of dimethylsulfoxide (DMSO), 0.02 ml of Cremophor, 0.08 ml of polyethyleneglycol (PEG), and 0.08 ml of physiological saline. The resulting solution was orally administered at doses of 1 mg/kg one week after the MPTP treatment, and a Levodopa group containing Levodopa at 50 mg/kg and Benzerazide at 25 mg/kg was intraperitoneally administered 1 hour later.
A single administration of the Levodopa group in the following Table 4 indicates values resulting from a MPTP (toxin) treatment followed by an administration of the Levodopa group compared to the treatment results of a Levodopa single administration group of Levodopa and Benzerazide.
At 1 hour and 3 hours after administration of Levodopa, the animals were sacrificed by cervical vertebra dislocation and the brain tissues were immediately isolated from the animals. 0.5 me of iced solution for HPLC analysis (0.1 M perchloric acid and 0.1 mM EDTA) was added to a striatum obtained from the isolated brain tissues, and an ultrasonic grinder was used to prepare a tissue homogenate. The tissue homogenate was centrifuged at 12,000 rpm for 15 minutes, and its supernatant was filtered through nitrocellulose membrane filter (0.2 um, Millipore). For HPLC analysis, uBondapak™ C18 column (4.6×150 mm, particle size 10 μm: Shisheido, Japan) was used, the flow rate of the mobile phase (0.07 M monobasic sodium phosphate, 1 mM sodium octasulfonic acid, 0.1 uM EDTA, 5% acetonitrile, pH 3.2) was maintained at 0.5 me/min, and the electrode potential of the electrochemical detector (CouloChem III, ESA, Japan) was set at 350 mV.

[3] = system: MPTP-induced mouse model; test: Tail suspension test in MPTP-induced mouse model of Parkinson's disease; format: in vivo; conditions: Mus musculus, 168 h; administration concentration 10 (10 mg/kg), oral, 7 days after MPTP; % of control group (Sham); read-out: Mobility (%)
Description: A. MPTP (1-methyl-4-phenyl-1,2,3,6-tetrahydropyridine) and drug treatment MPTP (20 mg/kg, free base; Sigma, St. louis, Mo.) was administered to an 8 week old (20-25 g) male C57BL/6 test mouse intraperitoneally three times a day at the interval of 2 hours to construct a model (Breidert et al., 2002; Lichuan Yang, Shuei Sugama, Jason W. Chirichigno, Jason Gregorio, Stefan Lorenzl, Dong H. Shin, Susan E. Browne, Yoshinori Shimizu, Tong H. Joh, M. Flint Beal, l and David S. Alber. (2003) Minocycline Enhances MPTP Toxicity to Dopaminergic Neurons. J Neurosci Res. 74:278-285). In order to observe the protective effects of the compound as a candidate drug, the compound was dissolved in a solution containing 10% dimethylsulfoxide (DMSO), 10% Cremophor, and 40% polyethyleneglycol (PEG), […] treatment. Rasagiline as a control drug was also dissolved in the same solution, and the resulting solution was administered at the same doses in the same manner as above. A control group (Sham) in which MPTP was not administered was constructed by intraperitoneally administering saline solution to the group instead of MPTP in the same manner as above and orally administering the same solution 1 hour before and after PBS treatment.
A tail suspension test was performed in order to measure the induction degree of behavioral dysfunctions in accordance with administration of MPTP and a drug. At 7 days after administration of the drug, a round stainless steel rod (width: 1 cm) was affixed to a cage (width: 16 cm, height: 40 cm) 35 cm above from the surface shielded by black wooden structures in the left and right sides to perform experiments. The time for which the animal moved for a total period of 6 minutes was measured in seconds to evaluate the drug action.
Mobility refers to an expression of the measurement of the time for which the animal moved with its tail hung high as a percentage compared to the measurement of a control group.

Row | SMILES | inhibition at 0.01 µM ([1]; treatment concentration 10 nM) [%] | response vs control in vivo at 10 mg/kg [3] [%] | also measured
1 | NC(=O)OCc1nc(-c2ccc(OCc3ccccc3)cc2)no1 [Example 2, carbamic acid 3-(4-benzyloxy-phenyl)-[1,2,4]oxadiazol-5-ylmethyl ester] | – | – | inhibition at 0.01 µM [1]: 95%; Concentration of dopamine compared to a control group %, 1 hr [2]: 106.12%; Concentration of dopamine compared to a control group %, 3 hr [2]: 43.6%
2 | NC(=O)OCc1cc(-c2ccc(OCc3ccccc3F)cc2)no1 [Example 11, carbamic acid 3-[4-(2-fluoro-benzyloxy)-phenyl]-isoxazol-5-ylmethyl ester] | 101 | 82.2 | –
3 | NC(=O)OCc1cc(-c2ccc(OCc3c(F)cccc3F)cc2)no1 [Example 14, carbamic acid 3-[4-(2,6-difluoro-benzyloxy)-phenyl]-isoxazol-5-ylmethyl ester] | 96 | 75.3 | –
4 | CCCCOc1ccc(-c2cc(COC(N)=O)on2)cc1 [Example 43, carbamic acid 3-(4-butoxy-phenyl)-isoxazol-5-ylmethyl ester] | – | 71 | inhibition at 0.01 µM [1]: 96.8%
5 | NC(=O)OCc1cc(-c2ccc(OCSC(F)(F)F)cc2)no1 [Example 58, carbamic acid 3-(4-trifluoromethylsulfanylmethoxy-phenyl)-isoxazol-5-ylmethyl ester] | – | 98.9 | inhibition at 0.01 µM [1]: 88.1%
6 | NC(=O)OCc1cc(-c2ccc(OCc3cccnc3)cc2)no1 [Example 66, Carbamic acid 3-[4-(pyridin-3-ylmethoxy)-phenyl]-isoxazol-5-ylmethyl ester] | – | 74.9 | inhibition at 0.01 µM [1]: 87.3%
7 | Cc1noc(C)c1COc1ccc(-c2cc(COC(N)=O)on2)cc1 [Example 72, carbamic acid 3-[4-(3,5-dimethyl-isoxazol-4-ylmethoxy)-phenyl]-isoxazol-5-ylmethyl ester] | 87.9 | 91.4 | –
8 | NC(=O)OCc1cc(-c2ccc(NCc3ccc(F)cc3F)cc2)no1 [Example 81, Carbamic acid 3-[4-(2,4-difluoro-benzylamino)-phenyl]-isoxazol-5-ylmethyl ester] | 91.4 | 72.6 | –
9 | Cc1cccc(CNc2ccc(-c3cc(COC(N)=O)on3)cc2)c1 [Example 101, Carbamic acid 3-[4-(3-methyl-benzylamino)-phenyl]-isoxazol-5-ylmethyl ester] | 80.5 | 78.3 | –
10 | COc1ccccc1CNc1ccc(-c2cc(COC(N)=O)on2)cc1 [Example 104, Carbamic acid 3-[4-(2-methoxy-benzylamino)-phenyl]-isoxazol-5-ylmethyl ester] | 89.1 | 82 | –
11 | NC(=O)OCc1cc(-c2ccc(NCc3cccs3)cc2)no1 [Example 110, carbamic acid 3-{4-[(thiophen-2-ylmethyl)-amino]-phenyl}-isoxazol-5-ylmethyl ester] | – | 80.7 | inhibition at 0.01 µM [1]: 80.8%
12 | O=C(OCc1cc(-c2ccc(OCc3ccccc3)cc2)no1)n1ccnc1 [Example 120, Imidazole-1-carboxylic acid 3-(4-benzyloxy-phenyl)-isoxazol-5-ylmethyl ester] | 87.8 | – | Concentration of dopamine compared to a control group %, 1 hr [2]: 148.5%; Concentration of dopamine compared to a control group %, 3 hr [2]: 53.9%
13 | O=C(OCc1cc(-c2ccc(OCc3ccccc3)cc2)no1)N1CCOCC1 [Example 127, morpholine-4-carboxylic acid 3-(4-benzyloxy-phenyl)-isoxazol-5-ylmethyl ester] | 45.3 | – | Concentration of dopamine compared to a control group %, 1 hr [2]: 140.7%; Concentration of dopamine compared to a control group %, 3 hr [2]: 60.4%
14 | NCCCNC(=O)OCc1cc(-c2ccc(OCc3ccccc3)cc2)no1 [Example 130, (3-amino-propyl)-carbamic acid 3-(4-benzyloxy-phenyl)-isoxazol-5-ylmethyl ester] | 52.9 | – | Concentration of dopamine compared to a control group %, 1 hr [2]: 131.9%; Concentration of dopamine compared to a control group %, 3 hr [2]: 77.0%
15 | NC(=O)NCc1cc(-c2ccc(OCc3ccccc3)cc2)no1 [Example 152, [3-(4-benzyloxy-phenyl)-isoxazol-5-ylmethyl]-urea] | 96.1 | – | Concentration of dopamine compared to a control group %, 1 hr [2]: 87.0%; Concentration of dopamine compared to a control group %, 3 hr [2]: 77.0%
16 | NC(=O)CNCc1cc(-c2ccc(OCc3ccccc3)cc2)no1 [Example 162, 2-{[3-(4-benzyloxy-phenyl)-isoxazol-5-ylmethyl]-amino}-acetamide] | 66.1 | – | Concentration of dopamine compared to a control group %, 1 hr [2]: 148.3%; Concentration of dopamine compared to a control group %, 3 hr [2]: 100.1%
17 | NC(=O)OCc1cc(-c2ccc(OCc3c(F)cccc3Cl)cc2)no1 [Example 199, Carbamic acid 3-[4-(2-chloro-6-fluorobenzyloxy)-phenyl]-isoxazol-5-ylmethyl ester] | 83.2 | – | –
18 | Cc1cccc(COc2ccc(-c3cc(COC(N)=O)on3)cc2)c1 [Example 200, carbamic acid 3-[4-(3-methyl-benzyloxy)-phenyl]-isoxazol-5-ylmethyl ester] | 87.6 | – | –
19 | NC(=O)OCc1cc(-c2ccc(OCc3ccccc3C(F)(F)F)cc2)no1 [Example 201, carbamic acid 3-[4-(2-trifluoromethyl-benzyloxy)-phenyl]-isoxazol-5-ylmethyl ester] | 72.4 | – | –
20 | NC(=O)OCc1cc(-c2ccc(OCc3ccc(C(F)(F)F)cc3)cc2)no1 [Example 202, carbamic acid 3-[4-(4-trifluoromethyl-benzyloxy)-phenyl]-isoxazol-5-ylmethyl ester] | – | – | inhibition at 0.1 µM ([1]; treatment concentration 100 nM): 95.5%
21 | NC(=O)OCc1cc(-c2ccc(OCc3ccc4c(c3)OCO4)cc2)no1 [Example 203, carbamic acid 3-[4-(benzo[1,3]dioxol-5-ylmethoxy)-phenyl]-isoxazol-5-ylmethyl ester] | 93 | – | –
22 | CC(C)(C)[N+]([O-])=Cc1cccc(COc2ccc(-c3cc(COC(N)=O)on3)cc2)c1 [Example 204, carbamic acid 3-{4-[3-(t-butylnitronyl)-benzyloxy]-phenyl}-isoxazol-5-ylmethyl ester] | – | – | Inhibitory effects (%) on the activity of MAO-B ([1]; treatment concentration 10 nM): 98.8%
